# Literature values as cited in US9382233B2, “Forms of vilazodone and processes for the preparation thereof” (APOTEX INC., priority 2012, dated 2016).
# Details: benzyl alcohol and its equivalents (benzoic acid, benzoate salts, benzaldehyde, benzyl acetate and benzyl benzoate); World Health Organization (JECFA, 2001)
structure (smiles),measurement,value
OCc1ccccc1 [benzyl alcohol],acceptable daily intake (ADI),5 mg/kg
